O=C1CCCCCN1
Settings	solubility (mole fraction)
in acetonitrile, 278.85 K	0.149
in acetonitrile, 283.65 K	0.187
in acetonitrile, 288.25 K	0.236
in acetonitrile, 293.55 K	0.294
in acetonitrile, 298.45 K	0.359
in acetonitrile, 303.65 K	0.427
in acetonitrile, 308.15 K	0.486
in acetonitrile, 313.15 K	0.558
in acetonitrile, 318.65 K	0.637
in acetonitrile, 323.15 K	0.725
in benzene, 279.25 K	0.2
in benzene, 284.15 K	0.232
in benzene, 288.55 K	0.27
in benzene, 293.15 K	0.31
in benzene, 297.85 K	0.361
in benzene, 303.05 K	0.423
in benzene, 307.25 K	0.482
in benzene, 313.25 K	0.566
in benzene, 317.45 K	0.631
in benzene, 321.75 K	0.701
in cyclohexane, 283.65 K	0.0042
in cyclohexane, 288.25 K	0.00616
in cyclohexane, 292.85 K	0.00897
in cyclohexane, 297.95 K	0.0144
in cyclohexane, 302.95 K	0.0244
in cyclohexane, 307.25 K	0.0373
in cyclohexane, 312.55 K	0.0617
in cyclohexane, 318.35 K	0.108
in cyclohexane, 322.65 K	0.163
in ethyl acetate, 278.85 K	0.103
in ethyl acetate, 283.65 K	0.127
in ethyl acetate, 288.35 K	0.156
in ethyl acetate, 292.95 K	0.192
in ethyl acetate, 298.05 K	0.243
in ethyl acetate, 302.85 K	0.304
in ethyl acetate, 307.15 K	0.364
in ethyl acetate, 312.35 K	0.459
in ethyl acetate, 317.15 K	0.557
in ethyl acetate, 321.55 K	0.654
